Our source for the EC50 values is ChEMBL document CHEMBL2046380, “Synthesis and structure-activity relationship of disubstituted benzamides as a novel class of antimalarial agents” (Bioorg Med Chem Lett, 2012).

In assay [1] the test system is Plasmodium falciparum. The assay is described as follows: Antimalarial activity against […] incubated for 72 hrs by DNA staining based MARK1 growth inhibition assay. The format is functional, organism-based.
In assay [2] the test system is HEK293. Nature of the assay: Cytotoxicity against human HEK293 cells after 72 hrs by […] CellTiterGlo reagent assay. The assay is classed as cell-based. The conditions noted are these: HEK293, 72 h.
In assay [3] the test system is Plasmodium falciparum. Nature of the assay: Antimalarial activity against chloroquine-sensitive Plasmodium falciparum 3D7 incubated for 72 hrs by DNA staining based MAR3D7 growth inhibition assay. The assay is classed as functional, organism-based. The settings on record: 3D7, 72 h.
Assay [4] has as its system Raji. The assay is described as follows: Cytotoxicity against human Raji cells after 72 hrs by […] CellTiterGlo reagent assay. The assay is classed as cell-based.
Assay [5] concerns BJ. Nature of the assay: Cytotoxicity against human BJ cells after 72 hrs by […] CellTiterGlo reagent assay. The assay is classed as cell-based.
Assay [6] deals with HepG2. Nature of the assay: Cytotoxicity against human HepG2 cells after 72 hrs by […] CellTiterGlo reagent assay. The format is cell-based. The conditions noted are these: HepG2, 72 h.

Molecules are shown by their SMILES.

Take `CC(C)N(Cc1cccc(OCCCCCC(=O)O)c1)C(=O)c1ccc(-c2cccc(O)c2)cc1`: the EC50 in assay [1] is over 15 µM; in assay [2], over 26 µM; in assay [3], over 15 µM; in assay [4], over 26 µM; in assay [5], over 26 µM; in assay [6], over 26 µM.

Take `COc1cc(F)cc(-c2ccc(C(=O)N(Cc3cccc(OCCCCCC(=O)O)c3)C(C)C)cc2)c1`: the EC50 in assay [1] is over 15 µM; in assay [2] it was over 26 µM; in assay [3], over 15 µM; in assay [4] it was over 26 µM; in assay [5], over 26 µM; in assay [6] it was over 26 µM.

As to `CCOC(=O)CCCCCOc1cccc(CN(C(=O)c2ccc(Br)cc2)C(C)C)c1`, the EC50 is over 15 µM in assay [1]; over 26 µM in assay [2]; over 15 µM in assay [3]; over 26 µM in assay [4]; over 26 µM in assay [5]; over 26 µM in assay [6].

In the case of `CCOC(=O)CCCCCOc1cccc(CN(C(=O)c2ccc(-c3cc(OC)cc(OC)c3)cc2)C(C)C)c1`, the EC50 in assay [1] is over 15 µM; in assay [2], over 26 µM; in assay [3] it was over 15 µM; in assay [4], over 26 µM; in assay [5], over 26 µM; in assay [6], over 26 µM.

As for `CC(=O)c1cccc(-c2ccc(C(=O)N(Cc3cccc(OCCCCCC(=O)O)c3)C(C)C)cc2)c1`, the EC50 was over 15 µM in assay [1]; over 26 µM in assay [2]; under 0.0004 µM in assay [3]; over 26 µM in assay [4]; over 26 µM in assay [5]; over 26 µM in assay [6].

As for `CCCNCc1ccccc1OCCCCCC(=O)OCC`, the EC50 in assay [1] was over 15 µM; in assay [2], over 26 µM; in assay [3], over 15 µM; in assay [4], over 26 µM; in assay [5] it was over 26 µM; in assay [6], over 26 µM.

Consider `C=CCCC(=O)NC[C@H](O)c1ccc2c(c1)OCO2`, for which the EC50 in assay [1] was over 7.51 µM; in assay [2], over 13 µM; in assay [3] it was over 7.51 µM; in assay [4] it was over 13 µM; in assay [5], over 13 µM; in assay [6], over 13 µM.

In the case of `COc1ccc(C(=O)C(Br)N=[N+]=[N-])cc1OC` (stereo not given), the concentration for a half-maximal effect (EC50) was over 7.51 µM in assay [1]; over 13 µM in assay [2]; over 7.51 µM in assay [3]; over 13 µM in assay [4]; over 13 µM in assay [5]; over 13 µM in assay [6].

Consider `C=CCCC1=NCC(OC(C)=O)c2cc(OC)c(OC)cc21` (stereo not given), for which the EC50 in assay [1] is over 7.51 µM; in assay [2], over 13 µM; in assay [3] it was over 7.51 µM; in assay [4], over 13 µM; in assay [5], over 13 µM; in assay [6], over 13 µM.

On to `CCOC(=O)CCCCCOc1cccc(CN(C(=O)c2ccc(-c3cccc(OC(C)C)c3)cc2)C(C)C)c1`, for which the EC50 in assay [1] is over 15 µM; in assay [2] it was over 26 µM; in assay [3] it was over 15 µM; in assay [4] it was over 26 µM; in assay [5], over 26 µM; in assay [6], over 26 µM.

Take `CC(C)N(Cc1cccc(OCCCCCC(=O)O)c1)C(=O)c1ccc(-c2cccc(N(C)C)c2)cc1`: the EC50 was over 15 µM in assay [1]; over 26 µM in assay [2]; over 15 µM in assay [3]; over 26 µM in assay [4]; over 26 µM in assay [5]; over 26 µM in assay [6].

`CCOC(=O)CCCCCOc1cccc(CN(C(=O)c2ccc(-c3cnc(OC)nc3OC)cc2)C(C)C)c1`: the EC50 in assay [1] is over 15 µM; in assay [2] it was over 26 µM; in assay [3], over 15 µM; in assay [4], over 26 µM; in assay [5], over 26 µM; in assay [6] it was over 26 µM.

Take `C=CCCC1=NCC(O[Si](C)(C)C(C)(C)C)c2cc(OC)c(OC)cc21` (stereo not given): the EC50 was 3.06 µM in assay [1]; over 13 µM in assay [2]; 2.95 µM in assay [3]; over 13 µM in assay [4]; over 13 µM in assay [5]; over 13 µM in assay [6].

On to `CCOC(=O)CCCCCOc1cccc(CN(C(=O)c2ccc(-c3cc4ccccc4n3S(=O)(=O)c3ccccc3)cc2)C(C)C)c1`, for which the EC50 was over 15 µM in assay [1]; over 26 µM in assay [2]; over 15 µM in assay [3]; over 26 µM in assay [4]; over 26 µM in assay [5]; over 26 µM in assay [6].

Regarding `[N-]=[N+]=NC[C@H](O)c1ccc2c(c1)OCO2`, the EC50 in assay [1] is over 7.51 µM; in assay [2] it was over 13 µM; in assay [3], over 7.51 µM; in assay [4] it was over 13 µM; in assay [5] it was over 13 µM; in assay [6], over 13 µM.

For the compound `CCOC(=O)CCCCCOc1ccc(C=O)cc1`, the concentration giving a half-maximal response (EC50) in assay [1] is over 15 µM; in assay [2] it was over 26 µM; in assay [3], 0.0584 µM; in assay [4], over 26 µM; in assay [5] it was over 26 µM; in assay [6], over 26 µM.

Regarding `C=CCCC(=O)NCC1(c2ccc3c(c2)OCO3)OCCO1`, the EC50 in assay [1] was over 7.51 µM; in assay [2], over 13 µM; in assay [3] it was over 7.51 µM; in assay [4], over 13 µM; in assay [5], over 13 µM; in assay [6], over 13 µM.

`CC(C)N(Cc1cccc(OCCCCCC(=O)O)c1)C(=O)c1ccc(-c2ccsc2)cc1`: the EC50 in assay [1] was over 15 µM; in assay [2], over 26 µM; in assay [3] it was over 15 µM; in assay [4] it was over 26 µM; in assay [5] it was over 26 µM; in assay [6], over 26 µM.

Consider `O=C(O)c1cc(-c2cccs2)nc2ccccc12`, for which the EC50 in assay [1] is 0.822 µM; in assay [2], over 26 µM; in assay [3] it was 0.664 µM; in assay [4] it was over 26 µM; in assay [5], over 26 µM; in assay [6], over 26 µM.

With `CCOC(=O)CCCCCOc1cccc(CN(C(=O)c2ccc(-c3ccc(C(C)=O)s3)cc2)C(C)C)c1`, the EC50 in assay [1] was over 15 µM; in assay [2], over 26 µM; in assay [3], over 15 µM; in assay [4] it was over 26 µM; in assay [5], over 26 µM; in assay [6] it was over 26 µM.

Consider `CC(C)N(Cc1cccc(OCCCCCC(=O)O)c1)C(=O)c1ccc(-c2cc3ccccc3n2S(=O)(=O)c2ccccc2)cc1`, for which the EC50 is over 15 µM in assay [1]; over 26 µM in assay [2]; over 15 µM in assay [3]; over 26 µM in assay [4]; over 26 µM in assay [5]; over 26 µM in assay [6].

Turning to `CCOC(=O)CC(=O)NCC(OCC)(OCC)c1ccc2c(c1)OCO2`, the EC50 in assay [1] was over 7.51 µM; in assay [2], over 13 µM; in assay [3], over 7.51 µM; in assay [4], over 13 µM; in assay [5] it was over 13 µM; in assay [6], over 13 µM.

As for `CC(C)N(Cc1cccc(OCCCCCC(=O)O)c1)C(=O)c1ccc(-c2ccco2)cc1`, the EC50 in assay [1] was over 15 µM; in assay [2] it was over 26 µM; in assay [3], over 15 µM; in assay [4], over 26 µM; in assay [5], over 26 µM; in assay [6] it was over 26 µM.

On to `CC(C)N(Cc1cccc(OCCCCCC(=O)O)c1)C(=O)c1ccc(-c2ccncc2)cc1`, for which the EC50 in assay [1] was 0.52 µM; in assay [2] it was over 26 µM; in assay [3], 0.567 µM; in assay [4] it was over 26 µM; in assay [5] it was over 26 µM; in assay [6], over 26 µM.

Regarding `CC(C)N(Cc1cccc(OCCCCCC(=O)O)c1)C(=O)c1ccccc1`, the EC50 in assay [1] is 0.0074 µM; in assay [2], over 26 µM; in assay [3] it was over 15 µM; in assay [4], over 26 µM; in assay [5], over 26 µM; in assay [6], over 26 µM.

With `CCCN(Cc1cccc(OCCCCCC(=O)O)c1)C(=O)c1ccc(-c2ccc3c(c2)OCO3)cc1`, the EC50 in assay [1] was 0.995 µM; in assay [2], over 26 µM; in assay [3], 0.174 µM; in assay [4], over 26 µM; in assay [5], over 26 µM; in assay [6] it was over 26 µM.

As for `CCCNCc1ccc(OCCCCCC(=O)OCC)cc1`, the EC50 in assay [1] is over 15 µM; in assay [2] it was over 26 µM; in assay [3] it was over 15 µM; in assay [4] it was over 26 µM; in assay [5] it was over 26 µM; in assay [6], over 26 µM.

As for `CCOC(=O)/C=C1\NCCc2cc3c(cc21)OCO3`, the EC50 in assay [1] was over 7.51 µM; in assay [2], over 13 µM; in assay [3], over 7.51 µM; in assay [4], over 13 µM; in assay [5], over 13 µM; in assay [6], over 13 µM.

With `CC(C)N(Cc1cccc(OCCCCCC(=O)O)c1)C(=O)c1ccc(-c2cccc([N+](=O)[O-])c2)cc1`, the EC50 in assay [1] was over 15 µM; in assay [2] it was over 26 µM; in assay [3], under 0.0004 µM; in assay [4], over 26 µM; in assay [5], over 26 µM; in assay [6], over 26 µM.

Regarding `CCCN(Cc1ccccc1OCCCCCC(=O)OCC)C(=O)c1ccc(-c2ccc3c(c2)OCO3)cc1`, the concentration giving a half-maximal response (EC50) in assay [1] was over 15 µM; in assay [2], over 26 µM; in assay [3] it was over 15 µM; in assay [4], over 26 µM; in assay [5] it was over 26 µM; in assay [6] it was over 26 µM.
